Values joined by “and” are separate entries in the source; they are usually repeats but may differ in a detail not shown here. Equal entries are not always repeated.

For one series, the system named is PBMC. Description: PBMC proliferation after immunization with a mixture of eight synthetic peptides. Conditions: three rhesus monkeys immunized with mixture of eight peptides. Format: in vivo, rhesus monkeys. Here is the method: In the present studies, three rhesus monkeys (#7, #23 and #283C) were immunized subcutaneously with 1 ml (0.1 ml/site) of a mixture of eight synthetic peptides (300 µg of each peptide in sterile water) emulsified in complete Freund's adjuvant at 1:1 ratio. […] At 3 and 7 weeks after the primary immunization, two booster injections of the peptide mixture (150 µg of each peptide in sterile water) emulsified in incomplete Freund's adjuvant were given to each monkey. Monkey #7 was terminated after 34 weeks, for health reasons unrelated to the study, while the remaining two monkeys (#283C and #23) received one additional booster injection at 25 weeks.
At two week intervals following the first immunization of each animal, 15 ml of whole heparinized blood was collected by venous puncture. The peripheral blood mononuclear cells (PBMC) were separated by standard ficoll-hypaque centrifugation and employed in proliferation assays. The PBMCs were monitored every two weeks for a period of 32 weeks for proliferative responses against individual peptides and recombinant gp160.

In series [1] the test system is HIV-1. The series is classed as cell-based. To be noted: seven days after infection.
Another series concerns 3A9. The series is classed as in vivo, Balb/c mice. Conditions: mouse, in vivo.
In series [2] the test system is HIV-1. Format: cell-based, HIV-1 IIIB.
For series [3], the system named is HIV-1. The series is classed as cell-based. Conditions: various concentrations, seven days after infection.
Series [4] relates to HIV-1. Format: cell-based. Conditions: various concentrations, seven days after infection. This is another data set of the same source.
The format of series [5] is in vivo, Balb/c mice. Conditions: mouse, in vivo.
The test system of another series is HIV-1 IIIB. Description: Effect of V3 loop peptides on HIV-1 IIIB infection of human cells (RT activity). The series is classed as cell-based. The source says:
As detailed in TABLE 11A, these peptides include D23, D24, D25, D26, D30, D35, D38, D39, D40 and D44, which reflect a variety of strains such as mn, rf, wmj-3, sc, z6, eli, mn (y-l) and mn (y-p). However, it is important to note that this assay was confined specifically to inhibiting the infection of the heterologous strain HIV-1 IIIB. […]

In series [6] the test system is envelope protein gp160 of HIV-1 IIIB, mn or rf strains. Format: cell-based.

For the sequence RIQRGPGRAFVTIGK [Peptide R15K], the “proliferative responses of PBMCs (in words)” value in the series with PBMC is “A significant response was not detected”. Moreover, the “HIV-1 infection of MT-4 cells, reverse transcriptase activity in culture medium” value in the series on HIV-1 [1] is “inhibits HIV-1 infection”. Further, the “inhibitory activity retained, of control untreated peptide” value (bovine, fetal calf serum, 24 h) worked out at 50%. Also, the “time for which full strength inhibitory activity was retained” value (incubation in fetal calf serum at 37°C, tested at 1 µg/ml on MT-4 cells) is recorded as “up to 4 hours”. Also, in the series on 3A9, the “% Specific Lysis” value was 7.0% and 0.6% and 0% and 10.0% and 8.0%. Also, the “inhibition of HIV-1 infection of primary human T cells” value with HIV-1 [2] is 92%. For the same sequence, the “HIV-1 infection of H9 cells, reverse transcriptase activity in culture supernatant” value in the series on HIV-1 [3] is “inhibits HIV-1 infection”. Besides, the “cytotoxicity after pre-treatment of effector cells with anti-CD4 MAbs plus complement, or complement alone” value in the series with P815 (monomeric peptide) is “no significant effect”. Further, in the series on P815 (mouse, in vivo), the “Lysis of MHC-matched target cells without peptide pre-treatment (P815)” value is on record as “not observed”; the “cytotoxicity after treatment of CTL effectors with anti-CD8 MAbs and rabbit complement” value was “abolished the cytotoxicity”; the “lysis of P815 cells infected with recombinant vaccinia virus expressing HIV gp160 (VPE16)” value is listed as “specifically lysed”; the “mice with CTLs specifically lysing P815 pre-incubated with the peptide” value is 8 of 12 and 13 of 13 and 6 of 8. For the same sequence, the “HIV-1 infection of CEM cells, reverse transcriptase activity in culture supernatant” value in the series with HIV-1 [4] is on record as “inhibits HIV-1 infection”. Moreover, in series [5], the “time to CTL induction in the popliteal lymph node” value is listed as at most 7 days. In addition, the “% RT INHIBITION” value in the series with HIV-1 IIIB came out at 73.2%. In addition, the “RT ACTIVITY (CPM)” value in the series on HIV-1 IIIB (No Peptide 7528, Uninfected cells 558) is given as 2021 CPM. Moreover, the syncytia entry in series [6] was “no syncytia were observed”.

Values taken from patent publication EP0671947B1, “COMPOSITIONS FOR ELICITING CYTOTOXIC T-[…] AGAINST VIRUSES” (BOARD OF REGENTS THE UNIVERSITY OF TEXAS SYSTEM, priority 1991, dated 1993).
